Tested on: KRAS-mutant PDC multicell tumor spheroid viability
Assay: Anticancer human tumor 521955-158-R2-J5-PDC patient-derived pancreatic carcinoma cell line growth inhibition [KRAS2]
Details: for IC50: curve of first compound; for viability, T/C: stronger effect = lower value; active = viability on the fitted dose curve at most 10% of control; inactive = the rest
Summary of the method: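 Combination screen of spheroid viability in tumor-cell co-cultures with endothelial (HUVEC) and mesenchymal stem cell stroma. Each agent was tested in half-log dilutions, topping at clinical Cmax or at 10 microM without a known Cmax.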

[1] = second compound 0.1 µM, first compound 0.0316 µM
[2] = second compound 0.1 µM, first compound 0.1 µM
[3] = second compound 0.316 µM, first compound 0.0316 µM
[4] = second compound 0.316 µM, first compound 0.1 µM
[5] = second compound 1 µM, first compound 0.0316 µM
[6] = second compound 1 µM, first compound 0.1 µM
[7] = second compound 3.16 µM, first compound 0.0316 µM
[8] = second compound 3.16 µM, first compound 0.1 µM
[9] = second compound 10 µM, first compound 0.0316 µM
[10] = second compound 10 µM, first compound 0.1 µM
[11] = second compound 0.1 µM, first compound 0.316 µM
[12] = second compound 0.1 µM, first compound 1 µM
[13] = second compound 0.1 µM, first compound 3.16 µM
[14] = second compound 0.1 µM, first compound 10 µM
[15] = second compound 0.316 µM, first compound 0.316 µM
[16] = second compound 0.316 µM, first compound 1 µM
[17] = second compound 0.316 µM, first compound 3.16 µM
[18] = second compound 0.316 µM, first compound 10 µM
[19] = second compound 1 µM, first compound 0.316 µM
[20] = second compound 1 µM, first compound 1 µM
[21] = second compound 1 µM, first compound 3.16 µM
[22] = second compound 1 µM, first compound 10 µM
[23] = second compound 3.16 µM, first compound 0.316 µM
[24] = second compound 3.16 µM, first compound 1 µM
[25] = second compound 3.16 µM, first compound 3.16 µM
[26] = second compound 3.16 µM, first compound 10 µM
[27] = second compound 10 µM, first compound 0.316 µM
[28] = second compound 10 µM, first compound 1 µM
[29] = second compound 10 µM, first compound 3.16 µM
[30] = second compound 10 µM, first compound 10 µM
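Also: viability read after seven days of drug exposure.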

CC(C)n1nc(-c2ccc3oc(N)nc3c2)c2c(N)ncnc21 + CC1OCC2(CCN(c3cnc(Sc4ccnc(N)c4Cl)c(N)n3)CC2)C1N
6.21 nM: IC50 (second compound 0.1 µM)
3.52 nM: IC50 (second compound 0.316 µM)
< 0.316 nM: IC50 (second compound 3.16 µM) | IC50 (second compound 10 µM)
0.359 nM: IC50 (second compound 1 µM)
inactive: viability, T/C (second compound 0.1 µM, first compound 0.000316 µM) 71.5% | viability, T/C (second compound 0.1 µM, first compound 0.001 µM) 71.4% | viability, T/C (second compound 0.1 µM, first compound 0.00316 µM) 56.5% | viability, T/C (second compound 0.1 µM, first compound 0.01 µM) 44.2% | viability, T/C [1] 32.8% | viability, T/C [2] 24.6% | viability, T/C (second compound 0.316 µM, first compound 0.000316 µM) 59.1% | viability, T/C (second compound 0.316 µM, first compound 0.001 µM) 57.7% | viability, T/C (second compound 0.316 µM, first compound 0.00316 µM) 51.2% | viability, T/C (second compound 0.316 µM, first compound 0.01 µM) 39.5% | viability, T/C [3] 31.2% | viability, T/C [4] 25.2% | viability, T/C (second compound 1 µM, first compound 0.000316 µM) 48.9% | viability, T/C (second compound 1 µM, first compound 0.001 µM) 50.8% | viability, T/C (second compound 1 µM, first compound 0.00316 µM) 45% | viability, T/C (second compound 1 µM, first compound 0.01 µM) 36.9% | viability, T/C [5] 28.1% | viability, T/C [6] 21.6% | viability, T/C (second compound 3.16 µM, first compound 0.000316 µM) 47.5% | viability, T/C (second compound 3.16 µM, first compound 0.001 µM) 50.8% | viability, T/C (second compound 3.16 µM, first compound 0.00316 µM) 37.8% | viability, T/C (second compound 3.16 µM, first compound 0.01 µM) 29.4% | viability, T/C [7] 23.4% | viability, T/C [8] 19.3% | viability, T/C (second compound 10 µM, first compound 0.000316 µM) 47.7% | viability, T/C (second compound 10 µM, first compound 0.001 µM) 50.1% | viability, T/C (second compound 10 µM, first compound 0.00316 µM) 41.2% | viability, T/C (second compound 10 µM, first compound 0.01 µM) 28.4% | viability, T/C [9] 24.6% | viability, T/C [10] 19.6%

CC1(C)CCC(CN2CCN(c3ccc(C(=O)NS(=O)(=O)c4ccc(NCC5CCOCC5)c([N+](=O)[O-])c4)c(Oc4cnc5[nH]ccc5c4)c3)CC2)=C(c2ccc(Cl)cc2)C1 + CC1OCC2(CCN(c3cnc(Sc4ccnc(N)c4Cl)c(N)n3)CC2)C1N
inactive: viability, T/C [1] 70.5% | viability, T/C [2] 75.5% | viability, T/C [11] 74% | viability, T/C [12] 81.3% | viability, T/C [13] 89.9% | viability, T/C [14] 15.3% | viability, T/C [3] 62.2% | viability, T/C [4] 71.7% | viability, T/C [15] 51.1% | viability, T/C [16] 63.5% | viability, T/C [17] 69.2% | viability, T/C [18] 11.9% | viability, T/C [5] 53.5% | viability, T/C [6] 51.5% | viability, T/C [19] 54.1% | viability, T/C [20] 50.3% | viability, T/C [21] 45.7% | viability, T/C [7] 48.1% | viability, T/C [8] 41.3% | viability, T/C [23] 35.1% | viability, T/C [24] 41.4% | viability, T/C [25] 46.7% | viability, T/C [9] 40.3% | viability, T/C [10] 47.5% | viability, T/C [27] 37.2% | viability, T/C [28] 40.5% | viability, T/C [29] 17.1%
4270 nM: IC50 (second compound 0.316 µM)
< 31.6 nM: IC50 (second compound 3.16 µM) | IC50 (second compound 10 µM)
active: viability, T/C [22] 8.54% | viability, T/C [26] 8.81% | viability, T/C [30] 1.93%
1370 nM: IC50 (second compound 1 µM)
5300 nM: IC50 (second compound 0.1 µM)

COc1cc(Nc2ncc3c(n2)-c2ccc(Cl)cc2C(c2c(F)cccc2OC)=NC3)ccc1C(=O)O + CC1OCC2(CCN(c3cnc(Sc4ccnc(N)c4Cl)c(N)n3)CC2)C1N
< 31.6 nM: IC50 (second compound 0.1 µM) | IC50 (second compound 0.316 µM) | IC50 (second compound 1 µM) | IC50 (second compound 3.16 µM) | IC50 (second compound 10 µM)
inactive: viability, T/C [1] 44.6% | viability, T/C [2] 45.2% | viability, T/C [11] 39.7% | viability, T/C [12] 38.8% | viability, T/C [13] 37.2% | viability, T/C [14] 37.4% | viability, T/C [3] 41% | viability, T/C [4] 39.3% | viability, T/C [15] 45.5% | viability, T/C [16] 34.4% | viability, T/C [17] 36.4% | viability, T/C [18] 35.8% | viability, T/C [5] 39.5% | viability, T/C [6] 35.1% | viability, T/C [19] 38.1% | viability, T/C [20] 36% | viability, T/C [21] 34.5% | viability, T/C [22] 30.5% | viability, T/C [7] 38.4% | viability, T/C [8] 31.1% | viability, T/C [23] 30.8% | viability, T/C [24] 30% | viability, T/C [25] 28.2% | viability, T/C [26] 33.6% | viability, T/C [9] 37.8% | viability, T/C [10] 37.7% | viability, T/C [27] 36% | viability, T/C [28] 37.1% | viability, T/C [29] 27.1% | viability, T/C [30] 31.1%

COc1cc2nccc(Oc3ccc(NC(=O)C4(C(=O)Nc5ccc(F)cc5)CC4)cc3)c2cc1OC + CC1OCC2(CCN(c3cnc(Sc4ccnc(N)c4Cl)c(N)n3)CC2)C1N
4800 nM: IC50 (second compound 1 µM)
inactive: viability, T/C [1] 75.7% | viability, T/C [2] 90.5% | viability, T/C [11] 74.8% | viability, T/C [12] 77.8% | viability, T/C [13] 64.1% | viability, T/C [14] 46.7% | viability, T/C [3] 64.3% | viability, T/C [4] 74.3% | viability, T/C [15] 63.5% | viability, T/C [16] 71% | viability, T/C [17] 60.3% | viability, T/C [18] 37.8% | viability, T/C [5] 66.8% | viability, T/C [6] 64.5% | viability, T/C [19] 65.6% | viability, T/C [20] 60.6% | viability, T/C [21] 61% | viability, T/C [22] 32% | viability, T/C [7] 42.4% | viability, T/C [8] 46.4% | viability, T/C [23] 51.4% | viability, T/C [24] 52.5% | viability, T/C [25] 46.8% | viability, T/C [26] 46.2% | viability, T/C [9] 44.9% | viability, T/C [10] 48.7% | viability, T/C [27] 53.2% | viability, T/C [28] 56.5% | viability, T/C [29] 40.1% | viability, T/C [30] 27.7%
5530 nM: IC50 (second compound 0.316 µM)
< 31.6 nM: IC50 (second compound 3.16 µM)
8050 nM: IC50 (second compound 0.1 µM)
1090 nM: IC50 (second compound 10 µM)
